Experimental data as given in US4891432A, “Phenoxy imidazole compound” (Yamanouchi Pharmaceutical Co., Ltd., priority 1986, dated 1990).
pIC50: −log10 of the molar value. Where two headings read alike, the source gives them in different places.

Legend:
[1] = test system: mouse leukemia L1210 cells; assay: Effectiveness against mouse leukemia L1210 cells (in vitro test), cytotoxicity by trypan blue dye exclusion; type: cell-based; settings: L1210 cells, 3 days, 37° C., read-out: IC50 (mean dose producing 50%-killing of tumor cells)
Procedure: Effectiveness against mouse leukemia L1210 cells (in vitro test)
A suspension of cells in culture medium was transferred into wells in a microplate in an amount of 1×10^5 L1210-cells/well. Test sample diluted with a culture medium was added to the suspension in each well, and the mixture was incubated on the medium at 37° C. for 3 days in an atmosphere of air containing 5% carbon dioxide.
Thereafter, the incubated cells were recovered from the microplate and the number of live cells was counted by the dye exclusion test using a 0.5% solution of trypan blue and by using a hemocytometer.

Ehrlich solid tumor = assay: Test 2: Anti-tumor test against Ehrlich solid tumor; type: in vivo, ddY/SLC mice; settings: i.p., days 1 through 9, tumor weight day 21; for inhibition in vivo at 100 mg/kg / inhibition in vivo at 50 mg/kg: Mus musculus, Ehrlich, ip, 504 h, read-out: Growth Inhibition Rate
Procedure: Anti-tumor test against Ehrlich solid tumor
Ehrlich tumor cells, 2×10^6, on Day 7 after intraperitoneal transplantation to ddY/SLC mice, were subcutaneously transplanted in the left abdomen of ddY/SLC mice (5week age, male)--10 to a group. The active component was intraperitoneally administered in a definite dose 24 hours after the transplantation. (administration: once per one day; 1 through 9 days)
Growth inhibition rate (%)=(C-T)/C×100
T: mean tumor weight in the active component-administered group
c: mean tumor weight in the control group

| Compound | pIC50 ([1]; Mus musculus, 72 h) | inhibition in vivo at 100 mg/kg (Ehrlich solid tumor; 100 mg/kg) | other results |
| --- | --- | --- | --- |
| 6-[3-[6-[5-(1-imidazolyl]pyridadyloxy]]-2,2-dimethylhexanoic acid ethyl ester [Example 60] |  |  | pIC50 [1]: 5.43; Growth Inhibition Rate (Ehrlich solid tumor; 50 mg/kg): 40.5% |
| 6[p-[5-(1-imidazolyl)pentyloxy]phenoxy]-2,2-dimethylhexaneheptylamide [Example 61] |  |  | pIC50 [1]: 5.23; Growth Inhibition Rate (Ehrlich solid tumor; 100 mg/kg): 38.9% |
| CC(C)(CCCCOc1ccc(OCCCCCn2ccnc2)cc1)C(N)=O [Example 1, 6-[p-[5-(1-imidazol-yl)pentyloxy]phenoxy]-2,2-dimethylhexanamide] | 5.14 | 68.5% |  |
| CC(C)NC(=O)C(C)(C)CCCCOc1ccc(OCCCCCn2ccnc2)cc1 [Example 2] | 5.12 |  | inhibition in vivo at 50 mg/kg (Ehrlich solid tumor; 50 mg/kg): 52.9% |
| CC(C)(CCCCOc1ccc(OCCCCCn2ccnc2)cc1)C(=O)NCc1ccccc1 [Example 3] | 5.40 |  | inhibition in vivo at 50 mg/kg (Ehrlich solid tumor; 50 mg/kg): 58.5% |
| CC(C)(CCCCOc1ccc(OCCCCCn2cccn2)cc1)C(N)=O [Example 4] | 5.31 | 50.1% |  |
| CC(C)(CCCCOc1ccc(OCCCCCn2ccnc2)cc1)C(=O)OCc1ccccc1 [Example 5, benzyl 6-[p-[5-(1-imidazolyl)pentyloxy]phenoxy]-2,2-dimethylhexanoate] | 5.20 | 39.3% |  |
| CC(C)(C)OC(=O)C(C)(C)CCCCOc1ccc(OCCCCCn2ccnc2)cc1 [Example 6] | 5.17 | 43.8% |  |
| CCCCCCCCCOc1ccc(OCCCCCn2ccnc2)cc1 [Example 7, [p-[5-(1-imidazolyl)pentyloxy]phenoxy]nonane] | 4.96 | 45% |  |
| OCCCCCCOc1ccc(OCCCCCn2ccnc2)cc1 [Example 9] | 4.92 | 30.7% |  |
| CCOC(=O)COc1ccc(OCCCCCn2ccnc2)cc1 [Example 10, ethyl p-[5-(1-imidazol-yl)pentyloxy]phenoxyacetate] |  | 23.7% |  |
| COc1ccc(OCCCCCn2ccnc2)cc1 [Example 11, 1-[5-(1-imidazolyl)pentyloxy]-4-methoxybenzene] | 4.40 | 33.4% |  |
| COC(=O)CCCCC(=O)Oc1ccc(OCCCCCn2ccnc2)cc1 [Example 12] | 5.07 |  |  |
| CCOC(=O)C(C)(C)CCCCOc1ccc(OCCCCCOCc2cccnc2)cc1 [Example 13, ethyl 6-[p-[5-(3-pyridylmethyloxy)pentyloxy]phenoxy]-2,2-dimethylhexanoate] | 5.12 |  |  |
| CCOC(=O)C(C)(C)CCCCOc1ccc(OCCCCCOc2cccnc2)cc1 [Example 14] | 5.38 |  |  |
| CCOC(=O)C(C)(C)CCCCOc1ccc(OCCCCCn2cccc2)cc1 [Example 15] | 4.54 | 38.8% |  |
| CCOC(=O)C(C)(C)CCCCOc1ccc(OCCCCCn2cccn2)cc1 [Example 16] | 5.09 | 42.2% |  |
| CCOC(=O)C(C)(C)CCCCOc1ccc(OCCCCCOCc2ccccn2)cc1 [Example 17] | 4.86 |  | inhibition in vivo at 50 mg/kg (Ehrlich solid tumor; 50 mg/kg): 36.6% |
| CCOC(=O)C(C)(C)CCCCOc1ccc(OCCCCCOCCc2ccccn2)cc1 [Example 18] | 5.02 | 34.9% |  |
| CCOC(=O)C(C)(C)CCCCOc1ccc(OCCCCCSc2ccncc2)cc1 [Example 19, ethyl 6-[p-[5-(4-pyridylmercapto)pentyloxy]phenoxy]-2,2-dimethylhexanoate] | 5.24 | 47.6% |  |
| CCOC(=O)C(C)(C)CCCCOc1ccc(OCCCCCSc2nccn2C)cc1 [Example 20] | 5.09 | 52.8% |  |
| CCOC(=O)C(C)(C)CCCCOc1ccc(OCCCCCSc2nnnn2C)cc1 [Example 22, ethyl 6-[p-[5-(1-methyl-5-tetrazolylmercapto)pentyloxy]phenoxy]-2,2-dimethylhexanoate] | 5.17 | 40.2% |  |
| CCOC(=O)C(C)(C)CCCCOc1ccc(OCCCCCSc2cccc[n+]2[O-])cc1 [Example 23] | 5.21 |  |  |
| CCOC(=O)C(C)(C)CCCCOc1ccc(OCCCCCSc2ncccn2)cc1 [Example 24, ethyl 6-[p-[5-(2-pyrimidylthio)pentyloxy]phenoxy]-2,2-dimethylhexanoate] | 4.69 | 31.7% |  |
| CCOC(=O)C(C)(C)CCCCOc1ccc(OCCCCCSC2=NCCS2)cc1 [Example 25] | 4.63 |  |  |

| Compound | pIC50 ([1]; Mus musculus, 72 h) | inhibition in vivo at 100 mg/kg (Ehrlich solid tumor; 100 mg/kg) | other results |
| --- | --- | --- | --- |
| CCOC(=O)C(C)(C)CCCCOc1ccc(OCCCCCSc2nc3ccccc3s2)cc1 [Example 26] | 4.37 | 30% |  |
| CCOC(=O)C(C)(C)CCCCOc1ccc(OCCCCCSc2nc3ccccc3[nH]2)cc1 [Example 27] | 5.38 |  |  |
| CCOC(=O)C(C)(C)CCCCOc1ccc(OCCCCCSc2nccc(O)n2)cc1 [Example 28] | 4.72 |  |  |
| Cn1ccnc1SCCCCCOc1ccc(OCCCCC(C)(C)C(N)=O)cc1 [Example 30] | 5.64 | 60.9% |  |
| CC(C)(CCCCOc1ccc(OCCCCCSc2ccncc2)cc1)C(N)=O [Example 31] | 5.59 | 48.9% |  |
| CCOC(=O)C(C)(C)CCCCOc1ccc(OCCCCCSc2ncnc3[nH]cnc23)cc1 [Example 32] | 5.66 | 57.5% |  |
| CCOC(=O)C(C)(C)CCCCOc1ccc(OCCCCCSc2nnc(N)s2)cc1 [Example 33] | 5.11 | 59.5% |  |
| Cn1nnnc1SCCCCCOc1ccc(OCCCCC(C)(C)C(N)=O)cc1 [Example 34] | 5.40 |  |  |
| CCOC(=O)C(C)(C)CCCCOc1ccc(OCCCCCOc2ccccn2)cc1 [Example 35, ethyl 6-[p-[5-(2-pyridyloxy)pentyloxy]phenoxy]-2,2-dimethylhexanoate] | 5.07 | 35.9% |  |
| CCOC(=O)C(C)(C)CCCCOc1ccc(OCCCCCn2cnc3ccccc32)cc1 [Example 36] | 5.42 |  |  |
| CCOC(=O)C(C)(C)CCCCOc1cccc(OCCCCCn2ccnc2)c1 [Example 37] | 5.34 |  |  |
| CCOC(=O)C(C)(C)CCCCOc1ccc(OCCCCCn2cnc3cncnc32)cc1 [Example 39] | 5.39 |  |  |
| CCOC(=O)C(C)(C)CCCCOc1ccc(OCCCCCOc2ccccc2-c2ccccc2)cc1 [Example 40] |  | 46.9% |  |
| CCOC(=O)C(C)(C)CCCCOc1ccc(OCCCCCOc2ccncc2)cc1 [Example 41] | 5.13 | 38.7% |  |
| CCOC(=O)C(C)(C)CCCCSc1nnc(SCCCCCn2ccnc2)s1 [Example 42, ethyl 6-[2-[5-(1-imidazolyl)pentylthio)-1,3,4-thiadiazol-5-ylthio]-2,2-dimethylhexanoate] | 5.36 |  | inhibition in vivo at 50 mg/kg (Ehrlich solid tumor; 50 mg/kg): 53.1% |
| CCOC(=O)C(C)(C)CCCCOc1ccc(OCCCCCSc2nc3ncccc3[nH]2)cc1 [Example 43, ethyl 6-[p-[5-(1H-imidazo[4,5-b]pyridin-2-ylthio)pentyloxy]phenoxy]-2,2-dimethylhexanoate] | 5.10 | 55.5% |  |
| CC(C)(CCCCOc1ccc(OCCCCCSc2nc3cccnc3[nH]2)cc1)C(N)=O [Example 44] | 5.43 | 46.1% |  |
| CCOC(=O)C(C)(C)CCCCOc1ccc(OCCCCCn2cncn2)cc1 [Example 48, ethyl 6-[p-[5-(1,2,4-triazol-1-yl)pentyloxy]phenoxy]-2,2-dimethylhexanoate] | 5.26 | 46.3% |  |
| CNC(=O)C(C)(C)CCCCOc1ccc(OCCCCCn2ccnc2)cc1 [Example 49, 6-[p-[5-(1-imidazolyl)pentyloxy]phenoxy]-2,2-dimethylhexanoic acid methylamide] | 5.26 |  |  |
| CN(C)C(=O)C(C)(C)CCCCOc1ccc(OCCCCCn2ccnc2)cc1 [Example 50] | 5.74 |  |  |
| CCCCCCCCCCNC(=O)C(C)(C)CCCCOc1ccc(OCCCCCn2ccnc2)cc1 [Example 51] | 6.22 |  | inhibition in vivo at 50 mg/kg (Ehrlich solid tumor; 50 mg/kg): 42.5% |
| CC(C)(CCCCOc1ccc(OCCCCCn2ccnc2)cc1)C(=O)NC1CCCCC1 [Example 52] | 5.44 | 55.7% |  |
| CC(C)(CCCCOc1ccc(OCCCCCn2ccnc2)cc1)C(=O)Nc1ccccc1 [Example 53] | 5.37 | 49.3% |  |
| CC(C)(C#N)CCCCOc1ccc(OCCCCCn2ccnc2)cc1 [Example 55, 6-[p-[5-(1-imidazolyl)pentyloxy]phenoxy]-2,2-dimethylhexane-nitrile] | 5.42 |  | inhibition in vivo at 50 mg/kg (Ehrlich solid tumor; 50 mg/kg): 63.1% |
| NC(=O)CCCCCOc1ccc(OCCCCCn2ccnc2)cc1 [Example 56] | 4.86 | 30.2% |  |
